Measurements taken from patent publication US20160331708A1 (priority 2014, published 2016).
Values after ≈ are worked out from the molar mass of the structure shown. Values joined by “and” are separate entries in the source; they are usually repeats but may differ in a detail not shown here. Identical values can stand only once. Counter-ions that a name gives are not always drawn. Like-named read-outs stand apart in the source and are kept apart here. Numbered stars: 1 amine (or outer) side, 2 acyl side, 3 side chain; on linkers, the order of the positions; unused ones are H or OH. Bridge positions count the residues as written; N and C are the ends. Square brackets hold non-standard residues; d marks the D form. Peptide text beside a SMILES is read from it. I, II: the chains in the order shown. Actinocin(9to1) = Cc1c2oc3c(C)ccc(C(=O)[*:1])c3nc-2c(C(=O)[*:2])c(N)c1=O; NMeV = CN[C@H](C(=O)O)C(C)C; Sar = CNCC(=O)O

What was measured:
Bacillus subtilis 168 = assay: Antibiotic MIC tests in microtiter plates; conditions: for effect on MIC value when combined with anthranilic acid: anthranilic acid at around 2 mM, B. subtilis; for MIC with anthranilic acid (2.2 mM): antibiotic against B. subtilis in the presence of anthranilic acid (2.2 mM); for Effect: effect of anthranilic acid (2.2 mM) on MIC of the antibiotic against B. subtilis; for effect on the MIC of streptomycin: related compounds tested for synergistic effect with streptomycin (text, Table 4 title)
Legionella pneumophila = conditions: Sasaki et al., 2012; cited from earlier work
Streptomyces MBT3 = assay: TLC biogram / agar overlay antimicrobial assay of EtOAc extracts of Streptomyces MBT3 cultures treated with plant hormones; format: cell-based, Streptomyces sp MBT3 (indicator strain B. subtilis); conditions: methyl-jasmonate 100 μM or salicylic acid 250 μM added to 7 day cultures, 24 hours; B. subtilis indicator
Method: All media for growth of Streptomyces are described in (Kieser et al., 2000). For the preparation of Streptomyces cultures, spores were obtained from SFM agar plates and inoculated at a density of 5×10^6 into 20 ml liquid minimal media with mannitol and glycerol as the carbon sources culture media in a 250 ml Erlenmeyer flask and incubated at 30° C. in a rotary shaker (250 rpm). Mycelia were precipitated by centrifugation for 10 minutes at 12,000 g. Each replicate of culture supernatant was extracted twice with an equal amount (40 ml in total) of analytically pure EtOAc (Sigma-Aldrich St. Louis, Mo., USA). Two grams of Na2SO4 was then added into the organic phase to remove remaining water and was evaporated under vacuum at 38° C. Samples were then re-dissolved in Methanol-d4 (99.8%) (Cambridge Isotope Laboratories, Inc., Andover, Mass., USA) for NMR analysis. 1.5 ml of the culture was collected every three hours and centrifuged. […]
Actinomycetes are very abundantly present in the plant rhizosphere. […] The ethyl acetate extract of the culture fluid of MBT3 was analyzed further for metabolic profile and antimicrobial activity against Bacillus subtilis.
Antimicrobial activity of the extracts was analyzed using thin layer chromatography (TLC) biograms. […]

[1] = antibiotic alone against B. subtilis (Table 2)
[2] = antibiotic alone against B. subtilis (Table 3)
[3] = Bacillus subtilis, 168, antibiotic alone against B. subtilis (Table 2)
[4] = Bacillus subtilis, 168, antibiotic alone against B. subtilis (Table 3)
[5] = Bacillus subtilis, 168, compound alone (Table 4)

## Neomycin [Neomycin (sulfate)]
Bacillus subtilis 168
  effect on MIC value when combined with anthranilic acid: decreased
  MIC with anthranilic acid (2.2 mM): 15.6 µg/mL
  Effect: Lower MIC
Bacillus subtilis 168; [1]
  MIC: 62.5 µg/mL
Bacillus subtilis 168; [2]
  MIC: 62.5 µg/mL

## CC1(C)S[C@@H]2[C@H](NC(=O)Cc3ccccc3)C(=O)N2[C@H]1C(=O)[O-].[Na+] [Penicillin G (sodium salt), Penicillin G]
Bacillus subtilis 168
  effect on MIC value when combined with anthranilic acid: decreased
  MIC with anthranilic acid (2.2 mM): 0.0031 µg/mL
  Effect: Lower MIC
Bacillus subtilis 168; [1]
  MIC: 0.0062 µg/mL
Bacillus subtilis 168; [2]
  MIC: 0.0062 µg/mL

## CN[C@@H]1[C@@H](O[C@H]2O[C@H](CO)[C@@H](N)[C@H](O)[C@H]2O)OC2C[C@@H](N)[C@@H](O[C@H]3[C@H](O)[C@@H](O)[C@H](N)C[C@@H]3N)OC2[C@@H]1O (stereo partly drawn) [Apramycin (sulfate), Apramycin]
Bacillus subtilis 168; [3]
  MIC: 1.95 µg/mL
Bacillus subtilis 168; [4]
  MIC: 1.95 µg/mL
Bacillus subtilis 168
  MIC with anthranilic acid (2.2 mM): 1.953 µg/mL
  Effect: No effect

## CO[C@H]1/C=C/O[C@@]2(C)Oc3c(C)c(O)c4c(O)c(c(/C=N/N5CCN(C)CC5)c(O)c4c3C2=O)NC(=O)/C(C)=C\C=C\[C@H](C)[C@H](O)[C@@H](C)[C@@H](O)[C@@H](C)[C@H](OC(C)=O)[C@@H]1C [Rifampin]
Bacillus subtilis 168; [3]
  MIC: 0.0122 µg/mL (≈ 0.0148 µM)
Bacillus subtilis 168; [4]
  MIC: 0.0122 µg/mL (≈ 0.0148 µM)
Bacillus subtilis 168
  MIC with anthranilic acid (2.2 mM): 0.0122 µg/mL
  Effect: No effect

## O=C(O)[C@@H]1CCCN1 (racemic) [D,L-Proline]
Bacillus subtilis 168; compound alone (Table 4)
  MIC: >750 µg/mL

## Nc1cccc(C(=O)O)c1 [3-aminobenzoic acid]
Bacillus subtilis 168; [5]
  MIC: 750 µg/mL (≈ 5470 µM)

## Benzoic acid
Bacillus subtilis 168; compound alone (Table 4)
  MIC: >750 µg/mL

## CC1(C)S[C@@H]2[C@H](NC(=O)[C@H](N)c3ccccc3)C(=O)N2[C@H]1C(=O)O [Ampicillin (sodium salt), Ampicillin]
Bacillus subtilis 168; [3]
  MIC: 0.0153 µg/mL

## CCn1cc(C(=O)O)c(=O)c2ccc(C)nc21 [Nalidixic acid]
Bacillus subtilis 168; [3]
  MIC: 3.1 µg/mL (≈ 13.3 µM)

## CCC[C@@H]1C[C@@H](C(=O)N[C@@H]([C@H]2O[C@H](SC)[C@H](O)[C@@H](O)[C@H]2O)[C@H](C)Cl)N(C)C1 [Clindamycin (HCl), Clindamycin]
Bacillus subtilis 168; [3]
  MIC: 0.488 µg/mL
Bacillus subtilis 168; [4]
  MIC: 0.488 µg/mL
Bacillus subtilis 168
  MIC with anthranilic acid (2.2 mM): 0.244 µg/mL

## O=C(O)[C@@H]1CCCN1 [L-Proline]
Bacillus subtilis 168; [5]
  MIC: > 1500 µg/mL

## NC[C@H]1O[C@H](O[C@H]2[C@H](O)[C@@H](O[C@H]3O[C@H](CO)[C@@H](O)[C@H](N)[C@H]3O)[C@H](N)C[C@@H]2N)[C@H](O)[C@@H](O)[C@@H]1O [Kanamycin (sulfate), Kanamycin]
Bacillus subtilis 168; [3]
  MIC: 125 µg/mL
Bacillus subtilis 168; [4]
  MIC: 125 µg/mL
Bacillus subtilis 168
  MIC with anthranilic acid (2.2 mM): 31.2 µg/mL

## O=C(N[C@H](CO)[C@H](O)c1ccc([N+](=O)[O-])cc1)C(Cl)Cl [Chloramphenicol]
Bacillus subtilis 168; [3]
  MIC: 125 µg/mL (≈ 387 µM)
Bacillus subtilis 168; [4]
  MIC: 125 µg/mL (≈ 387 µM)
Bacillus subtilis 168
  MIC with anthranilic acid (2.2 mM): 125 µg/mL
  Effect: No effect

## [H]/N=C(/N)N[C@H]1[C@H](O)[C@@H](O)[C@H](O[C@@H]2O[C@@H](C)[C@](O)(C=O)[C@H]2O[C@@H]2O[C@@H](CO)[C@H](O)[C@@H](O)[C@@H]2NC)[C@@H](N/C(N)=N\[H])[C@@H]1O [Streptomycin (sulfate), Streptomycin]
Bacillus subtilis 168; 75 μg/μl anthranilate
  MIC of streptomycin: 15000 µg/mL
  reduction of MIC of streptomycin: 50%
Bacillus subtilis 168; [3]
  MIC: 31.2 µg/mL
Bacillus subtilis 168; [4]
  MIC: 31.2 µg/mL
Bacillus subtilis 168; [5]
  MIC: 31.2 µg/mL
Bacillus subtilis 168; Bacillus subtilis, 168, read-out: MIC value of streptomycin, Bacillus subtilis, no anthranilic acid (FIG. 3)
  MIC: 31.2 µg/mL
Bacillus subtilis 168; Bacillus subtilis, 168, read-out: MIC value of streptomycin, at 300 μg/ml anthranilic acid (FIG. 3)
  MIC: 5 µg/mL
Bacillus subtilis 168; Bacillus subtilis, no anthranilic acid (FIG. 3)
  MIC value of streptomycin: 30 µg/mL and 31.25 ± 0.05 µg/mL
Bacillus subtilis 168; anthranilate at concentrations of 300 μg/μl and higher
  reduction in the MIC of streptomycin: six-fold
Bacillus subtilis 168; anthranilic acid about 50 μg/ml in the culture
  MIC value of Streptomycin reduced by a factor: 2
Bacillus subtilis 168; anthranilic acid about 150 μg/ml in the culture
  MIC value of Streptomycin reduced by a factor: 3
Bacillus subtilis 168; anthranilic acid about 300 μg/ml in the culture
  MIC value of Streptomycin reduced by a factor: 6
Bacillus subtilis 168
  effect on MIC value when combined with anthranilic acid: decreased
  MIC with anthranilic acid (2.2 mM): 5 µg/mL
  Effect: Lower MIC
Bacillus subtilis 168; combined with anthranilic acid, concentration dependent
  decrease of streptomycin MIC (times): up to 6 times

## Actinomycin C
Bacillus subtilis 168
  effect on MIC value when combined with anthranilic acid: decreased
  MIC with anthranilic acid (2.2 mM): 0.039 µg/mL
  Effect: Lower MIC
Bacillus subtilis 168; [1]
  MIC: 0.078 µg/mL
Bacillus subtilis 168; [2]
  MIC: 0.078 µg/mL

## O=C1O[C@H]([C@@H](O)CO)C(O)=C1O [L-Ascorbic acid (sodium salt), L-Ascorbic acid]
Bacillus subtilis 168; [5]
  MIC: > 750 µg/mL

## CN[C@H](CC(C)C)C(=O)N[C@H]1C(=O)N[C@@H](CC(N)=O)C(=O)N[C@H]2C(=O)N[C@H]3C(=O)N[C@H](C(=O)N[C@H](C(=O)O)c4cc(O)cc(O)c4-c4cc3ccc4O)[C@H](O)c3ccc(c(Cl)c3)Oc3cc2cc(c3O[C@@H]2O[C@H](CO)[C@@H](O)[C@H](O)[C@H]2O[C@H]2C[C@](C)(N)[C@H](O)[C@H](C)O2)Oc2ccc(cc2Cl)[C@H]1O [Vancomycin (HCl), Vancomycin]
Bacillus subtilis 168; Bacillus subtilis, 168
  MIC: 0.156 µg/mL
Bacillus subtilis 168
  effect on MIC value when combined with anthranilic acid: No synergistic effect
  MIC with anthranilic acid (2.2 mM): 0.156 µg/mL
  Effect: No effect
Bacillus subtilis 168; [2]
  MIC: 0.156 µg/mL

## O=C(O)c1cccc(O)c1O [2,3-dihydroxybenzoic acid]
Bacillus subtilis 168; [5]
  MIC: 750 µg/mL (≈ 4870 µM)
Bacillus subtilis 168
  effect on the MIC of streptomycin: duplication of the MIC value

## Nc1ccccc1C(=O)O [anthranilic acid]
Legionella pneumophila
  growth inhibitory effect: mild growth inhibitory effect
Bacillus subtilis 168; compound itself, at concentrations below 5 mg/ml
  activity against B. subtilis: did not show any activity

## CC[C@H]1OC(=O)[C@H](C)[C@@H](O[C@H]2C[C@@](C)(OC)[C@@H](O)[C@H](C)O2)[C@H](C)[C@@H](O[C@@H]2O[C@H](C)C[C@H](N(C)C)[C@H]2O)[C@](C)(O)C[C@@H](C)C(=O)[C@H](C)[C@@H](O)[C@]1(C)O [Erythromycin]
Bacillus subtilis 168; [3]
  MIC: 0.122 µg/mL (≈ 0.166 µM)

## Cc1c2oc3c(C)ccc(C(=O)N[C@@H]4C(=O)N[C@H](C(C)C)C(=O)N5CCC[C@H]5C(=O)N(C)CC(=O)N(C)[C@@H](C(C)C)C(=O)O[C@@H]4C)c3nc-2c(C(=O)N[C@@H]2C(=O)N[C@H](C(C)C)C(=O)N3CCC[C@H]3C(=O)N(C)CC(=O)N(C)[C@@H](C(C)C)C(=O)O[C@@H]2C)c(N)c1=O [Actinomycin D] (I: T[dV]P[Sar][NMeV] / II: T[dV]P[Sar][NMeV]; ester I:1-I:C, II:1-II:C; linker I:N-II:N via Actinocin(9to1))
Bacillus subtilis 168
  MIC with anthranilic acid (2.2 mM): 0.156 µg/mL
  Effect: No effect
Bacillus subtilis 168; [1]
  MIC: 0.156 µg/mL (≈ 0.124 µM)
Bacillus subtilis 168; [2]
  MIC: 0.156 µg/mL (≈ 0.124 µM)

## CC1=C(C(=O)O)N2C(=O)[C@@H](NC(=O)[C@H](N)c3ccccc3)[C@H]2SC1 [Cephalexin (1H2O), Cephalexin]
Bacillus subtilis 168; [3]
  MIC: 0.122 µg/mL (≈ 0.351 µM)
Bacillus subtilis 168; [4]
  MIC: 0.122 µg/mL (≈ 0.351 µM)
Bacillus subtilis 168
  Effect: Lower MIC

## Nc1cc(N)cc(C(=O)O)c1 [3,5-diaminobenzoic acid]
Bacillus subtilis 168; [5]
  MIC: > 750 µg/mL

## Actinomycin C2
Bacillus subtilis 168; [1]
  MIC: 0.25 µg/mL

## Oc1ccccc1O [Catechol]
Bacillus subtilis 168; [5]
  MIC: 750 µg/mL (≈ 6810 µM)
Bacillus subtilis 168
  effect on the MIC of streptomycin: duplication of the MIC value

## Nc1ccc(C(=O)O)cc1 [4-aminobenzoic acid]
Bacillus subtilis 168; [5]
  MIC: 750 µg/mL (≈ 5470 µM)

## CC/C=C\CC1C(=O)CCC1CC(=O)OC (stereo not drawn) [methyl jasmonate]
Streptomyces MBT3
  effect on antimicrobial activity (bioactivity) of MBT3: strongly enhanced

## Gentamycin [Gentamycin (sulfate)]
Bacillus subtilis 168
  effect on MIC value when combined with anthranilic acid: decreased
  MIC with anthranilic acid (2.2 mM): 0.625 µg/mL
  Effect: Lower MIC
Bacillus subtilis 168; [1]
  MIC: 1.25 µg/mL
Bacillus subtilis 168; [2]
  MIC: 1.25 µg/mL

## O=C(O)c1ccccc1O [Salicylic acid (sodium salt), Salicylic acid]
Bacillus subtilis 168; [5]
  MIC: > 1500 µg/mL
Streptomyces MBT3
  effect on antimicrobial activity (bioactivity) of MBT3: no effect

## NC(=O)c1ccccc1N [Anthranilic acid amide]
Bacillus subtilis 168; [5]
  MIC: > 1500 µg/mL
